Measurements taken from the supplement of paper PMC10307832.

What was measured:
Test in all cases: relative viability (nuclei count vs DMSO), 5 days (fraction); higher = more cells survive
[1] = compound: CN(C)CC1=CC(=CC=C1)N=C(C2=CC=CC=C2)C3=C(NC4=C3C=CC(=C4)C(=O)N(C)C)O + CC(=O)c1c(C)c2cnc(Nc3ccc(N4CCNCC4)cn3)nc2n(C2CCCC2)c1=O [Palbociclib] (partner 0.5 µM)
Summary of the method: (§1)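 Dosing by pin tool came one day after lung cancer cell lines were seeded in 1536-well plates, using either one drug or a fixed anchor-drug dose plus five library-drug doses (not always all listed) in √10 steps. After 5 days, nuclei were counted on 4× images. Relative viability is treated-well nuclei count divided by vehicle-well nuclei count, and values are medians of duplicate plates.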

[2] = compound: CN(C)CC1=CC(=CC=C1)N=C(C2=CC=CC=C2)C3=C(NC4=C3C=CC(=C4)C(=O)N(C)C)O + Cc1nc(NC(=O)N2CCC[C@H]2C(N)=O)sc1-c1ccnc(C(C)(C)C(F)(F)F)c1 [Alpelisib] (partner 2 µM)
Summary of the method: as §1

[3] = compound: CN(C)CC1=CC(=CC=C1)N=C(C2=CC=CC=C2)C3=C(NC4=C3C=CC(=C4)C(=O)N(C)C)O + CC(C)C[C@H](NC(=O)[C@H](Cc1ccccc1)NC(=O)c1cnccn1)B(O)O [Bortezomib] (partner 0.002 µM)
Summary of the method: as §1

[4] = compound: CN(C)CC1=CC(=CC=C1)N=C(C2=CC=CC=C2)C3=C(NC4=C3C=CC(=C4)C(=O)N(C)C)O + Cc1nc(Nc2ncc(C(=O)Nc3c(C)cccc3Cl)s2)cc(N2CCN(CCO)CC2)n1 [Dasatinib] (partner 0.075 µM)
Summary of the method: as §1

Row | Cell Line | relative viability ([1]; first compound 0.08 µM) | relative viability ([1]; first compound 0.253 µM) | relative viability ([1]; first compound 0.8 µM) | relative viability ([1]; first compound 2.53 µM) | relative viability ([1]; first compound 8 µM) | relative viability ([2]; first compound 0.08 µM) | relative viability ([2]; first compound 0.253 µM) | relative viability ([2]; first compound 0.8 µM) | relative viability ([2]; first compound 2.53 µM) | relative viability ([2]; first compound 8 µM) | relative viability ([3]; first compound 0.08 µM) | relative viability ([3]; first compound 0.253 µM) | relative viability ([3]; first compound 0.8 µM) | relative viability ([3]; first compound 2.53 µM) | relative viability ([3]; first compound 8 µM) | relative viability ([4]; first compound 0.08 µM) | relative viability ([4]; first compound 0.253 µM) | relative viability ([4]; first compound 0.8 µM) | relative viability ([4]; first compound 2.53 µM) | relative viability ([4]; first compound 8 µM)
1 | NCI-H2023 | 0.332 | 0.325 | 0.357 | 0.289 | 0.36 | 0.555 | 0.685 | 0.553 | 0.442 | 0.451 | 1.3 | 1.05 | 0.901 | 0.647 | 0.731 | 0.538 | 0.549 | 0.576 | 0.445 | 0.466
2 | NCI-H1651 | 0.526 | 0.505 | 0.554 | 0.521 | 0.494 | 1.05 | 0.985 | 1.03 | 0.807 | 0.826 | 0.959 | 0.984 | 0.957 | 0.794 | 0.932 | 0.414 | 0.459 | 0.443 | 0.284 | 0.386
3 | EKVX | 0.392 | 0.385 |  | 0.373 | 0.42 | 0.878 | 0.847 | 0.843 | 0.886 | 0.879 | 1 | 1 | 1.01 | 0.962 | 1.06 | 0.523 | 0.465 | 0.56 | 0.535 | 0.573
4 | NCI-H1993 | 0.63 | 0.615 |  | 0.75 | 0.592 | 0.83 | 0.671 | 0.622 | 0.694 | 0.732 | 1.04 | 1.11 | 0.748 | 1.22 | 1.36 | 0.505 | 0.602 | 0.512 | 0.607 | 0.729
5 | SW 1573 | 0.323 | 0.42 | 0.367 | 0.34 | 0.317 | 0.787 | 0.711 | 0.651 | 0.802 | 0.642 | 1.04 | 1.16 | 1.06 | 0.946 | 0.94 | 0.538 | 0.794 | 0.589 | 0.436 | 0.383
6 | LXF-289 | 0.603 | 0.544 | 0.606 | 0.547 | 0.568 | 1.04 | 1 | 0.966 | 0.971 | 0.941 | 1 | 0.888 | 0.993 | 0.927 | 0.939 | 0.203 | 0.216 | 0.246 | 0.242 | 0.205
7 | NCI-H3122 | 0.17 | 0.15 | 0.204 | 0.17 | 0.226 | 0.679 | 0.81 | 0.813 | 0.732 | 0.792 | 0.984 | 0.99 | 1.06 | 0.959 | 0.98 | 0.686 | 0.867 | 0.846 | 0.844 | 0.951
8 | NCI-H23 |  | 0.655 | 0.556 | 0.579 | 0.478 | 0.705 | 0.607 | 0.754 | 0.6 | 0.573 | 1.08 | 1.02 | 1.18 | 0.951 | 0.833 | 0.739 | 0.933 | 0.916 | 0.823 | 0.849
9 | HOP-62 | 0.372 | 0.445 | 0.441 | 0.43 | 0.4 | 0.995 | 1.13 | 0.93 | 1.03 | 0.973 | 0.875 | 1.25 | 0.746 | 0.801 | 0.72 | 0.618 | 0.703 | 0.65 | 0.571 | 0.579
10 | NCI-H441 | 0.217 | 0.231 | 0.2 | 0.198 | 0.247 | 0.717 | 0.761 | 0.642 | 0.834 | 0.495 | 0.572 | 0.449 | 0.538 | 0.511 | 0.331 | 0.521 | 0.68 | 0.529 | 0.582 | 0.505
11 | LC-2-ad | 0.404 | 0.512 | 0.475 | 0.456 | 0.486 | 0.896 | 0.86 | 0.857 | 0.848 | 0.672 | 1.08 | 1.1 | 1.03 | 0.979 | 0.995 | 0.697 | 0.593 | 0.751 | 0.409 | 0.44
12 | HCC-78 | 0.504 | 0.516 | 0.501 | 0.403 | 0.52 | 0.364 | 0.324 | 0.356 | 0.363 | 0.318 | 0.596 | 0.458 | 0.468 | 0.512 | 0.405 | 0.329 | 0.521 | 0.353 | 0.366 | 0.405
